Test results as given in the supplement of paper PMC3493320.

System: NCI-H295R
Assay: IC50 (antiproliferative, ATP content)
Settings: 48 h
How it was run: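 Adrenocortical carcinoma cells (1500 per well) were seeded in serum-free ITS-supplemented DMEM in 1536-well plates and cultured overnight. Library compounds were then pin-transferred at 8 final concentrations from 0.6 nM to 46 µM, and plates were kept 48 h at 37 °C, 5% CO2. ATP was read as CellTiter-Glo luminescence after 20 min at room temperature and normalised to vehicle (0%) and positive control (100% inhibition). IC50 came from four-parameter logistic fits; compounds with no concentration response were recorded as above the top dose.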

Compound | IC50 [µM]
C#C[C@]1(O)C=C[C@H]2[C@@H]3CCC4=CC(=O)CC[C@@H]4[C@H]3CC[C@@]21CC | > 46
CCN(CC)CCNC(=O)COc1ccc(Cl)cc1 | > 46
CC(C)CN(C[C@@H](OP(=O)([O-])[O-])[C@H](Cc1ccccc1)NC(=O)O[C@H]1CCOC1)S(=O)(=O)c1ccc(N)cc1.[Ca+2] | > 46
CC(C)=CCC/C(C)=C/CO | > 46
C=CCSSSCC=C | > 46
CCC(C)(CN(C)C)OC(=O)c1ccccc1.Cl (configuration not stated) | > 46
CC(N/C(=N\C#N)Nc1ccncc1)C(C)(C)C.O (configuration not stated) | > 46
Cc1ccnc(NS(=O)(=O)c2ccc(N)cc2)n1 | > 46
CCC(=O)O[C@@](Cc1ccccc1)(c1ccccc1)[C@@H](C)CN(C)C.O=S(=O)(O)c1ccc2ccccc2c1 | > 46
CC(C)NCC(O)COc1ccccc1-n1cccc1 (configuration not stated) | > 46
CCN1C[C@]2(COC)[C@H](O)C[C@H](OC)[C@@]34[C@@H]5C[C@@]6(O)[C@H](OC(=O)c7ccccc7)[C@@H]5[C@@](OC(C)=O)([C@@H]([C@H](OC)[C@H]23)[C@H]14)[C@@H](O)[C@@H]6OC | > 46
NS(=O)(=O)c1ccc(NC(=O)CCC(=O)O)cc1 | > 46
CN1c2ccccc2C(NCCCCCCC(=O)[O-])c2ccc(Cl)cc2S1(=O)=O.[Na+] (configuration not stated) | > 46
CN(C)C(=O)Oc1cccc([N+](C)(C)C)c1.[Br-] | > 46
NC(CO)(CO)CO | > 46
S=C(S)N1CCNCC1 | > 46
Cc1c(Cl)cccc1Nc1ncccc1C(=O)O | > 46
CCN(CC)CCOC(=O)C(Cc1cccc2ccccc12)CC1CCCO1.O=C(O)C(=O)O (configuration not stated) | > 46
O=C(CCN1CCN(CCO)CC1)N1c2ccccc2Sc2ccc(C(F)(F)F)cc21 | > 46
O=C([O-])COc1nn(Cc2ccccc2)c2ccccc12.[Na+] | > 46
OCC(=O)[C@@]2(O)CC[C@H]3[C@@H]4CC\C1=C\C(=O)CC[C@]1(C)[C@H]4[C@@H](O)C[C@]23C | > 46
CC(=O)OCC1=C(C(=O)O)N2C(=O)[C@@H](NC(=O)Cc3ccccc3)[C@H]2SC1 | > 46
COc1cc(C(=S)N2CCOCC2)cc(OC)c1OC | > 46
[H][C@@]1(CC\C3=C(C4=CC=CS4)/C2=CC=CS2)[N@+](CCCC1)(C3)C.[Br-] | > 46
O=C(O)C(N12)=[C@@]([C@@H]3OCCC3)S[C@]1([H])[C@]([C@@H](C)O)([H])C2=O | > 46
N[C@@H](CSCCCO)C(=O)O | > 46
c13c(C(\C(=C/N1C2CC2)C(O)=O)=O)c(c(c(c3F)N4C[C@@H](N[C@@H](C4)C)C)F)N | > 46
CCOC(=O)c1ccc(N)cc1 | > 46

Compound | IC50 [µM]
C[C@](N)(Cc1ccc(O)cc1)C(=O)O | > 46
O=C(C=Cc1ccccc1)OCc1ccccc1 | > 46
CC(CCc1ccc(O)cc1)NCCc1ccc(O)c(O)c1 (configuration not stated) | > 46
Cc1cccc(C)c1OCC(C)N.Cl (configuration not stated) | > 46
Cc1ccc(/C(=C\CN2CCCC2)c2ccccn2)cc1 | > 46
COc1ccccc1OC(=O)Oc1ccccc1OC | > 46
O=C([O-])[C@H](O)[C@@H](O)[C@H](O)[C@H](O)CO.O=C([O-])[C@H](O)[C@@H](O)[C@H](O)[C@H](O)CO.[Ba+2] | > 46
O=C2C=1/N=C\NC=1N(C)C(=O)N2C | > 46
CC(=O)Oc1cccc(C(=O)O)c1OC(C)=O | > 46
CCOC(=O)C1=C[C@@H](OC(CC)CC)[C@H](NC(C)=O)[C@@H](N)C1.O=C(O)C(O)C(O)C(=O)O | > 46
CC(COc1ccccc1)NC(C)C(O)c1ccc(O)cc1.Cl (configuration not stated) | > 46
Cc1noc(NS(=O)(=O)c2ccc(N)cc2)c1C | > 46
Oc1cccc(O)c1O | > 46
C[C@@H]1C[C@H]2[C@@H]3CCC4=CC(=O)C=C[C@]4(C)[C@@]3(F)[C@@H](O)C[C@]2(C)[C@@]1(O)C(=O)COC(=O)c1cccc(S(=O)(=O)[O-])c1.[Na+] | > 46
COS(=O)(=O)[O-].C[N+]1(C)CCCCC1COC(=O)C(O)(c1ccccc1)c1ccccc1 (configuration not stated) | > 46
CCn1cc(C(=O)O)c(=O)c2cc3c(cc21)OCO3 | > 46
CCCCC1(COC(=O)CCC(=O)O)C(=O)N(c2ccccc2)N(c2ccccc2)C1=O | > 46
CCCCC[C@H](O)/C=C/[C@@H]1[C@H]2C/C(=C/CCCC(=O)[O-])O[C@H]2C[C@H]1O.[Na+] | > 46
COc6cc7N1C(=O)CC2OC\C=C5\CN3CC[C@@]4(C1[C@H]2[C@H]5C[C@H]34)c7cc6OC (some centres not stated) | > 46
CCCCCN(CCCCC)C(=O)C(CCC(=O)[O-])NC(=O)c1ccc(Cl)c(Cl)c1.[Na+] (configuration not stated) | > 46
Clc1cccc(N2CCNCC2)c1 | > 46
CC1CCC(NC(=O)N(CCCl)N=O)CC1 (configuration not stated) | > 46
CCCC(C)C1(CC)C(=O)N=C([S-])NC1=O.[Na+] (configuration not stated) | > 46
CCOC(=O)NC(O)C(Cl)(Cl)Cl (configuration not stated) | > 46
Cc1nc(-c2ccc(Cl)cc2)oc1COC(C)(C)C(=O)O | > 46
C=C[C@H]1CN2CC[C@H]1C[C@H]2[C@H](O)c1ccnc2ccc(OC)cc12 | > 46
CC12CCC(C[N+](C)(CCC[N+](C)(C)C)C1)C2(C)C.COS(=O)(=O)[O-].COS(=O)(=O)[O-] (configuration not stated) | > 46

Now from value to compound:

IC50 [µM] | Compound
> 46 | COc1ccc(CCNC[C@H](O)c2ccc(O)cc2)cc1OC
> 46 | O=C(O)Cc1cn(-c2ccccc2)nc1-c1ccc(Cl)cc1
> 46 | Cc1cc(C(=O)NCCc2ccc(S(=O)(=O)NC(=O)NN3CCCCCC3)cc2)no1
> 46 | CCCCNc1cc(C(=O)O)cc(S(N)(=O)=O)c1Oc1ccccc1
> 46 | CCC(=O)O[C@]1(C(=O)SCF)[C@H](C)C[C@H]2C3C[C@H](F)C4=CC(=O)C=C[C@]4(C)[C@@]3(F)[C@@H](O)C[C@@]21C (some centres not stated)
> 46 | O=C(O)c1ccc(OCCCOc2ccc(C(=O)O)cc2)cc1
> 46 | CCCOc1ccccc1-c1nc2[nH]nnc2c(=O)[nH]1
> 46 | NS(=O)(=O)c1ccc(C(=O)O)cc1
> 46 | O=C(c1ccc(F)cc1)C1CCN(CCn2c(=O)[nH]c3ccccc3c2=O)CC1
> 46 | Cc1cccc(C)c1NC(=O)CN1CCCC1
> 46 | CC(C)CC(=O)N[C@H](C(=O)N[C@H](C(=O)N[C@@H](CC(C)C)[C@@H](O)CC(=O)N[C@@H](C)C(=O)N[C@@H](CC(C)C)[C@@H](O)CC(=O)O)C(C)C)C(C)C
> 46 | N[C@@H](C\C1=C\N=C/N1)C(O)=O.Cl
> 46 | COc1ccc(-c2noc(CC(=O)O)c2-c2ccc(OC)cc2)cc1
> 46 | NC(=O)Oc1ccc(Cc2ccccc2)cc1
> 46 | O.O=S(=O)([O-])CC(S)CS.[Na+] (configuration not stated)
> 46 | CCOc1ccc(S(=O)(=O)O)c2cccnc12
> 46 | O=C([C@@H](N(C)[C@]([C@H](CCC4)N4C([C@@H](CC)N5)=O)=O)CC2=CC=CC=C2)N(CCC1=O)C(C1)C(N[C@H](C(OC(C)[C@H](NC(C6=NC=CC=C6O)=O)C5=O)=O)C3=CC=CC=C3)=O (some centres not stated)
> 46 | Cc1nc2ccccc2n1Cc1ccc(Cl)cc1
> 46 | [Na+].[Na+].[O-]C(=O)c4ccccc4C=2c3cc(Br)c([O-])c(Br)c3OC=1C=2\C=C(\Br)C(=O)C=1Br
> 46 | CCCN(CCC)C(=O)C(CCC(=O)O)NC(=O)c1ccccc1 (configuration not stated)
> 46 | CC(=O)NS(=O)(=O)c1ccc(N)cc1

IC50 [µM] | Compound
> 46 | O[C@@H]([C@@H]1O\C(=C/[C@H](NC(N)=N)[C@H]1NC(C)=O)C(O)=O)[C@H](O)CO
> 46 | F[Si-2](F)(F)(F)(F)F.[NH4+].[NH4+]
> 46 | CCC(C)[C@@H](N)C(=O)O (some centres not stated)
> 46 | NCCCC[C@H](N)C(=O)O
> 46 | CC1=C(/C=C/C(C)=C/C=C/C(C)=C/C(=O)Oc2c(C)c(C)c3c(c2C)CC[C@@](C)(CCC[C@H](C)CCC[C@H](C)CCCC(C)C)O3)C(C)(C)CCC1
> 46 | CN1C(=O)CC(c2ccccc2)C1=O (configuration not stated)
> 46 | Cc1ccc(S(=O)(=O)NC(=O)NC2CCCCC2)cc1
> 46 | CNC(=O)[C@H](Cc1c[nH]c2ccccc12)NC(=O)[C@@H](CC(=O)NO)CC(C)C
> 46 | CN1CCN(c2c(F)cc3c(=O)c(C(=O)O)cn(CCF)c3c2F)CC1
> 46 | CC(=O)N(CC(C)C(=O)O)c1c(I)cc(I)c(N)c1I (configuration not stated)
> 46 | CNc1cc(OC)c(C(=O)N[C@H]2CCN(Cc3ccccc3)[C@H]2C)cc1Cl
> 46 | COc1ncnc(NS(=O)(=O)c2ccc(N)cc2)c1OC
> 46 | Cl.O=C(O)CC/C=C\CC[C@@H]1[C@@H](N2CCCCC2)[C@@H](O)C[C@@H]1OCc1ccc(-c2ccccc2)cc1
> 46 | O=C([O-])c1ccc(NC(=O)[C@H](Cc2ccc(O)cc2)NC(=O)c2ccccc2)cc1.[Na+]
> 46 | Cc1ccc(S(=O)(=O)[N-]Cl)cc1.O.O.O.[Na+]
> 46 | NCCCCCC(=O)O
> 46 | CC(C)NCC(O)COc1ccc(CCOCC2CC2)cc1 (configuration not stated)
> 46 | NC(=O)c1ccc([N+](=O)[O-])cc1Cl
> 46 | CCCCCCCC(=O)OCC(COC(=O)CCCCCCC)OC(=O)CCCCCCC
> 46 | C=CCNC(N)=S
> 46 | [C@]23([C@](OC(c1occc1)=O)([C@H](C)C[C@H]2[C@H]5[C@]([C@H](C3)O)([C@@]\4(\C(=C/C(/C=C/4)=O)CC5)C)Cl)C(=O)CCl)C
